Results published in patent US5703109A, “Selective aromatase inhibiting compounds” (Oy; Orion-yhtyma, priority 1992, dated 1997).

Legend:
[1] = target: desmolase; test: Inhibition of desmolase (cholesterol side chain cleavage, SCC, activity); type: biochemical; conditions: mitochondrial fraction from human placenta or bovine adrenals, 37° C., 30 min; read-out: DESMOLASE IC-50
Experimental: Incubations were carried out in 1,5 ml Eppendorf plastic robes, and an Eppendoff shaker, centrifuge and incubator were used as a unit. […] Controls contained all the above substances but the enzyme preparation was inactivated prior to the incubation by the addition of 900 μl of methanol. The mitochondrial fraction (1 mg protein) from human placenta or bovine adrenals was used as a source of enzyme. After 30 min incubation at 37° C., the reaction was terminated by the addition of 900 μl of methanol; 1500 dpm of marker ^14 C-4-pregnenolone was added to each incubate and the robes were vigorously shaken. […] The column was washed with one ml of 75% methanol and then with 3 ml of 80% methanol The 80% methanol eluate was run into the counting vial and 10 ml of scintillation liquid was added. Radioactivity was counted using a double-label program on a liquid scintillation counter (LKB RackBeta).
In inhibition experiments, the substance (final concentration range from 1 to 1000 μM) was added into incubation mixture in a volume of 10-20 μl, usually as methanol or ethanol solution. The same volume of the solute was added into control incubation vial.

[2] = target: T1, human aromatase (Homo sapiens, UniProt P11511); test: Inhibition of human aromatase (3H2O release from 1,2[3H]-androstene-3,17-dione, human placenta microsomes); type: biochemical; conditions: human placental microsomes, 37° C., 40 min; read-out: AROMATASE IC-50
T1 construct: The enzyme preparation was used without further purification; from tissue; host or cells: human placenta, microsomal fraction (100000×g precipitate)
T1 sequence (P11511 1-503): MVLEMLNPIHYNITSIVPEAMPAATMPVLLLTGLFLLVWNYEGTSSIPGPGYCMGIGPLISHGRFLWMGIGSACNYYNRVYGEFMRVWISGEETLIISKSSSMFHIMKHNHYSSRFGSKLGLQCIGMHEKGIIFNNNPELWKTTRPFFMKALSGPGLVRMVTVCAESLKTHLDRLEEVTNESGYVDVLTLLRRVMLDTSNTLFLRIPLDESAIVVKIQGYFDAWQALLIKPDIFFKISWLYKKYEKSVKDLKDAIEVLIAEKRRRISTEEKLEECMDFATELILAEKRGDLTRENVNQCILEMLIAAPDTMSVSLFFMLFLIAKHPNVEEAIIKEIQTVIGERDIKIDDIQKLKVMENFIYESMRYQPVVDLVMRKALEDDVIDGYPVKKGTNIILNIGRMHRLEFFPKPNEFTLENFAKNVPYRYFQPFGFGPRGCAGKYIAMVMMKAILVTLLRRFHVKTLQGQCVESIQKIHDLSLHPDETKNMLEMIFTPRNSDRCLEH
Experimental: Human aromatase enzyme was used. The enzyme was prepared from human placenta, which is rich of the enzyme. Microsomal fraction (100000×g precipitate) was prepared by centrifugation. The enzyme preparation was used without further purification. Test compounds listed in Table 1 were added together with 100000 dpm of 1,2[^3 H]-androstene-3,17-dione and NADPH generating system. The concentrations of the test compounds were 0.001; 0.01; 0.1 and 1.0 mM. The incubation was carried out at 37° C. for 40 min. […] Radioactivity was counted by a liquid scintillation counter. Aromatase inhibition was evaluated by comparing the ^3 H2 O-radioactivity of inhibitor treated samples to controls containing no inhibitor. IC-50 values were calculated as concentrations which inhibited the enzyme activity 50%.

[3] = Acute toxicity, LD50, oral, in mice; type: in vivo; conditions: young adult female NMRI mice
Description: […]. The administration of the test compound was oral.

| Compound | IC50 [1] [µM] | IC50 [2] [µM] | Acute toxicity (LD50 determination): tolerability of the highest dose tested ([3]; highest dose tested 400 mg/kg) | Acute toxicity (LD50 determination): adverse effects ([3]; up to 400 mg/kg) |
| --- | --- | --- | --- | --- |
| N#Cc1ccc(C(O)(CCc2ccc(F)cc2)c2cncs2)cc1 (centres unmarked) [Compound 9, 5-[1-(4-cyanophenyl)-3-(4-fluorophenyl)-1-hydroxypropyl]thiazole] | 300 | 0.28 | – | – |
| N#Cc1ccc(C(CC(O)c2ccc(F)cc2)n2cncn2)cc1 (centres unmarked) [Compound 6, 1-[1-(4-cyanophenyl)-3-(4-fluorophenyl)-3-hydroxypropyl]-1,2,4-triazole] | 380 | 0.3 | – | – |
| N#Cc1ccc(C(C(O)CCc2ccc(F)cc2)n2ccnc2)cc1 (single isomer, unassigned) [Compound 2, 1-[1-(4-cyanophenyl)-4-(4-fluorophenyl)-2-hydroxybutyl]-1H-imidazole, diastereomer a + d] | 49 | 0.18 | – | – |
| N#Cc1ccc(C(C(O)Cc2ccc(F)cc2)n2cncn2)cc1 (single isomer, unassigned) [Compound 4, 1-[1-(4-cyanophenyl)-3-(4-fluorophenyl)-2-hydroxypropyl]-1,2,4-triazole, diastereomer a + d] | > 1000 | 0.26 | well tolerated | No adverse effects were seen |
| N#Cc1ccc(C(C(=O)CCc2ccc(F)cc2)n2cncn2)cc1 (centres unmarked) [Compound 7, 1-[1-(-4-cyanophenyl)-4-(4-fluorophenyl)-2-oxobutyl]-1,2,4-triazole] | 172 | 0.9 | – | – |
| N#Cc1ccc(C(=CCc2ccc(F)cc2)n2cncn2)cc1 (single isomer, unassigned; isomer b) [Compound 8, 1-[1-(4-cyanophenyl)-3-(4-fluorophenyl)-1-propenyl]-1,2,4-triazole, isomer b] | 165 | – | – | – |
| N#Cc1ccc(C(C(O)CCc2ccc(F)cc2)n2cncn2)cc1 (single isomer, unassigned) [Compound 5, 1-[1-(4-cyanophenyl)-4-(4-fluorophenyl)-2-hydroxybutyl]-1,2,4-triazole, diastereomer a + d] | > 1000 | 0.95 | – | – |
| N#Cc1ccc(C(=CCCc2ccc(F)cc2)n2cncn2)cc1 (single isomer, unassigned; isomer b) [Compound 3, 1-[1-(4-cyanophenyl)-4-(4-fluorophenyl)-1-butenyl]-1,2,4-triazole, isomer b] | 300 | – | – | – |
| N#Cc1ccc(C(CCCc2ccc(F)cc2)n2ccnc2)cc1 (centres unmarked) [Compound 1, 1-[1-(4-cyanophenyl)-4-(4-fluorophenyl)butyl]-1H-imidazole] | 17 | – | – | – |
